Measurements published in ChEMBL document CHEMBL4270521, “Design, synthesis and biological evaluation of a series of novel 2-benzamide-4-(6-oxy-N-methyl-1-naphthamide)-pyridine derivatives as potent fibroblast growth factor receptor (FGFR) inhibitors” (Eur J Med Chem, 2018).

Columns and labels:
KG-1 = experiment: Antiproliferative activity against human KG1 cells expressing FGFR1 after 72 hrs; format: functional, cell-based; conditions: KG-1, 72 h
[1] = molecular target: Fibroblast growth factor receptor 1 (Homo sapiens, UniProt P11362); experiment: Inhibition of recombinant FGFR1 (unknown origin) using poly (Glu, Tyr) 4:1 as substrate after 60 mins by ELISA based spectrophotometric method
SNU-16 [2] = conditions: Homo sapiens
Description: Antitumor activity against human SNU16 cells xenografted in nude mouse assessed as tumor growth inhibition administered ip qd for 21 consecutive days and measured twice per week

[3] = molecular target: T1, Fibroblast growth factor receptor 3 (Homo sapiens, UniProt P22607); experiment: Inhibition of FGFR3 (unknown origin)
[4] = Antiproliferative activity against human UM-UC-14 cells expressing FGFR3 after 72 hrs; format: functional, cell-based; conditions: UMUC14, 72 h
RT-112 = experiment: Antiproliferative activity against human RT112 cells expressing FGFR3 after 72 hrs; format: functional, cell-based; conditions: RT-112, 72 h
NCI-H1581 = experiment: Antiproliferative activity against human NCI-H1581 cells expressing FGFR1 after 72 hrs; format: functional, cell-based; conditions: NCI-H1581, 72 h
SNU-16 [5] = experiment: Antiproliferative activity against human SNU16 cells expressing FGFR2 after 72 hrs; format: functional, cell-based; conditions: SNU-16, 72 h
BaF3 = experiment: Antiproliferative activity against mouse BAF3 cells expressing VEGFR2 after 72 hrs; format: functional, cell-based; conditions: BaF3, 72 h
[6] = Volume of distribution at steady state in Sprague-Dawley rat at 1 mg/kg, iv by LC-MS/MS analysis; format: ADME, organism-based; conditions: in vivo, read-out: Vdss
[7] = AUClast in Sprague-Dawley rat at 3 mg/kg, po administered via gavage by LC-MS/MS analysis; format: ADME, organism-based; set-up: dose 3 mg/kg, time 0 - last, route oral; conditions: in vivo
[8] = Half life in Sprague-Dawley rat at 3 mg/kg, po administered via gavage by LC-MS/MS analysis; format: ADME, organism-based; conditions: in vivo
[9] = AUCinfinity in Sprague-Dawley rat at 1 mg/kg, iv by LC-MS/MS analysis; format: ADME, organism-based; set-up: dose 1 mg/kg, route intravenous, time infinity; conditions: in vivo
[10] = Oral bioavailability in Sprague-Dawley rat at 3 mg/kg administered via gavage by LC-MS/MS analysis; format: ADME, organism-based; conditions: in vivo
[11] = Half life in Sprague-Dawley rat at 1 mg/kg, iv by LC-MS/MS analysis; format: ADME, organism-based; conditions: in vivo
[12] = molecular target: Fibroblast growth factor receptor 2 (Homo sapiens, UniProt P21802); experiment: Inhibition of recombinant FGFR2 (unknown origin) using poly (Glu, Tyr) 4:1 as substrate after 60 mins by ELISA based spectrophotometric method
[13] = molecular target: Vascular endothelial growth factor receptor 2 (Homo sapiens, UniProt P35968); experiment: Inhibition of recombinant VEGFR2 (unknown origin) using poly (Glu, Tyr) 4:1 as substrate after 60 mins by ELISA based spectrophotometric method
[14] = AUCinfinity in Sprague-Dawley rat at 3 mg/kg, po administered via gavage by LC-MS/MS analysis; format: ADME, organism-based; set-up: dose 3 mg/kg, time infinity, route oral; conditions: in vivo
[15] = molecular target: T1, Fibroblast growth factor receptor 3; experiment: Inhibition of recombinant FGFR3 (unknown origin) using poly (Glu, Tyr) 4:1 as substrate after 60 mins by ELISA based spectrophotometric method
[16] = AUClast in Sprague-Dawley rat at 1 mg/kg, iv by LC-MS/MS analysis; format: ADME, organism-based; set-up: dose 1 mg/kg, time 0 - last, route intravenous; conditions: in vivo
[17] = Clearance in Sprague-Dawley rat at 1 mg/kg, iv by LC-MS/MS analysis; format: ADME, organism-based; conditions: in vivo
SNU-16 [18] = experiment: Antitumor activity against human SNU16 cells xenografted in nude mouse assessed as tumor growth inhibition at 50 mg/kg, ip qd administered for 21 consecutive days and measured twice per week relative to control; format: functional; conditions: SNU-16, ip, read-out: TGI
Mus musculus = experiment: Toxicity in nude mouse xenografted with human SNU16 cells assessed as body weight loss at 10 to 50 mg/kg, ip qd administered for 21 consecutive days and measured twice per week; format: organism-based; conditions: in vivo
SNU-16 [19] = experiment: Antitumor activity against human SNU16 cells xenografted in nude mouse assessed as tumor growth inhibition at 10 mg/kg, ip qd administered for 21 consecutive days and measured twice per week relative to control; format: functional; conditions: SNU-16, ip, read-out: TGI
[20] = Aqueous solubility of the compound; format: physicochemical; conditions: buffer

Fibroblast growth factor receptor 1, sequence (P11362 whole entry): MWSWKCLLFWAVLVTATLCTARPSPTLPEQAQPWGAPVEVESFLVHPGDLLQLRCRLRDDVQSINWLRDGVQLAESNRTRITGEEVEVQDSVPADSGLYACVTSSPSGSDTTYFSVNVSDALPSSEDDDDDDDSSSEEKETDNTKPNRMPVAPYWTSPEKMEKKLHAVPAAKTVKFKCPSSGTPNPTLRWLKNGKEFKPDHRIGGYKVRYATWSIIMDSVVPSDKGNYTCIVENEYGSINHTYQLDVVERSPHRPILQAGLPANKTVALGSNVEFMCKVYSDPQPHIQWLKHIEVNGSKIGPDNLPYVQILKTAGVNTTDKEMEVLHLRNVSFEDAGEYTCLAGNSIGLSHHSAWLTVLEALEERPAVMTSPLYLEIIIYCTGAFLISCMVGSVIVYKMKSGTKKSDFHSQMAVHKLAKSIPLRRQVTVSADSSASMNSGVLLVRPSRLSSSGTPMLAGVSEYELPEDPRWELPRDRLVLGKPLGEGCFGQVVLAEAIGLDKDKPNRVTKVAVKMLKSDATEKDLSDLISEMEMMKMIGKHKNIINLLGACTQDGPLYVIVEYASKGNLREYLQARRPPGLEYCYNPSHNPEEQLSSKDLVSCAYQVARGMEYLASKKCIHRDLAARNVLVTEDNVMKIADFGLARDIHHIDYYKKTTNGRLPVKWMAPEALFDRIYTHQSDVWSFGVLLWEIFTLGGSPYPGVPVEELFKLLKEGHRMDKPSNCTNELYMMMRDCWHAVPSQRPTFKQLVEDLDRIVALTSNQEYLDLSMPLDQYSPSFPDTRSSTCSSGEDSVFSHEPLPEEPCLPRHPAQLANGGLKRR
T1 sequence (P22607 whole entry): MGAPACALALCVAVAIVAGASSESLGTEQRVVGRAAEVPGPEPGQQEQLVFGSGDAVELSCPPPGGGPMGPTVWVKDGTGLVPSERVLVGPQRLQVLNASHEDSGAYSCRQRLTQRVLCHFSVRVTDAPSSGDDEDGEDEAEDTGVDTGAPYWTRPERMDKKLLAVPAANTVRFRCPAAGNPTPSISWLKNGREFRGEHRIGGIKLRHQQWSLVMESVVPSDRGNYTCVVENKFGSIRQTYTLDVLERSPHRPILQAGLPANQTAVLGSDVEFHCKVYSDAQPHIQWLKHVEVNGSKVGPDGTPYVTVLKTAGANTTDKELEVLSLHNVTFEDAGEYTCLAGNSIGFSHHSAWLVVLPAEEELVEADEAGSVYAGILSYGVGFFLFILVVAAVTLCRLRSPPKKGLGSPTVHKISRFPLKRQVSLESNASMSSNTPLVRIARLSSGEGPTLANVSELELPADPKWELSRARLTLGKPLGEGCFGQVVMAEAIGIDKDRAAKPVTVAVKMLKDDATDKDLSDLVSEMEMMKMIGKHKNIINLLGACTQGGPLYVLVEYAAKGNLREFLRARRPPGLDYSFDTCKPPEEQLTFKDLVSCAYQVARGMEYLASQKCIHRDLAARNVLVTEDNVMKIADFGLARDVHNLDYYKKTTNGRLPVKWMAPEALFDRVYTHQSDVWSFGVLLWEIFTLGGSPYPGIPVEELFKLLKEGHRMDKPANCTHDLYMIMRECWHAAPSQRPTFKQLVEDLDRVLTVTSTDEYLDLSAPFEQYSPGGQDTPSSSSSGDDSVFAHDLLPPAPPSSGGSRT
Vascular endothelial growth factor receptor 2, sequence (P35968 whole entry): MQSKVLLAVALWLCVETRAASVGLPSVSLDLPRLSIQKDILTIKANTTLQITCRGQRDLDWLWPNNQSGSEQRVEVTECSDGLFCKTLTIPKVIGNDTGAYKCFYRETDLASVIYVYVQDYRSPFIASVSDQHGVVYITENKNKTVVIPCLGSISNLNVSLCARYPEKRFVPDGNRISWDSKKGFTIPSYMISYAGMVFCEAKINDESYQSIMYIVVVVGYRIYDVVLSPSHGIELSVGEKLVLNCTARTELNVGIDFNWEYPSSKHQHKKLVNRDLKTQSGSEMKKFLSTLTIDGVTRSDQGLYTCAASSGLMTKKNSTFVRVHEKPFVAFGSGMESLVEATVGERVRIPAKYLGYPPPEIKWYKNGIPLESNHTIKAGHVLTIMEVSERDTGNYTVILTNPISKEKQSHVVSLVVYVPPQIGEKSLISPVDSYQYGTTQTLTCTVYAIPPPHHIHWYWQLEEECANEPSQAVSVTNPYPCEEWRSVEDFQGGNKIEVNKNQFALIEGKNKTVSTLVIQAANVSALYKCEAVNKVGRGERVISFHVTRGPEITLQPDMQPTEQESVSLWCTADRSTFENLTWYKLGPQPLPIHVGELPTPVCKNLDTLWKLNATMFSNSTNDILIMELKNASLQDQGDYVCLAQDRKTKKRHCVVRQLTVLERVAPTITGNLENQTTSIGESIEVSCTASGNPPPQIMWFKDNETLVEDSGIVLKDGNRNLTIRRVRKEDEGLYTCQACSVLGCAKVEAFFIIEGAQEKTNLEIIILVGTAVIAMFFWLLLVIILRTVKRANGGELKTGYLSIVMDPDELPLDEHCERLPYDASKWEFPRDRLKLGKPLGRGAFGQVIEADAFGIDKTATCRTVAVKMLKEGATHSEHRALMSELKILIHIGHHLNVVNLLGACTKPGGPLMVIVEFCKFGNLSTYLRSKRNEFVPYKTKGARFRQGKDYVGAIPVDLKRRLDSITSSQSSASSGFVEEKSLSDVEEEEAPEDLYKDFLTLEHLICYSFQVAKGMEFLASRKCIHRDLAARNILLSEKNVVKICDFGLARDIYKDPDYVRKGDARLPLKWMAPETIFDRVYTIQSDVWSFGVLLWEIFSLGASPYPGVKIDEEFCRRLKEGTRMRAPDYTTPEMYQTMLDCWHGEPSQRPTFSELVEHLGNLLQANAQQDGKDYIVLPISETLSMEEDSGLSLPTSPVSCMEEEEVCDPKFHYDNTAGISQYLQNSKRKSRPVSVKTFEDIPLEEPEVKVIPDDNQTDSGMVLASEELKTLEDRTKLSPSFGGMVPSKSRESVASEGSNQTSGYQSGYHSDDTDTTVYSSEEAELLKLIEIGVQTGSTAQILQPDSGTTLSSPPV
Fibroblast growth factor receptor 2, sequence (P21802 whole entry): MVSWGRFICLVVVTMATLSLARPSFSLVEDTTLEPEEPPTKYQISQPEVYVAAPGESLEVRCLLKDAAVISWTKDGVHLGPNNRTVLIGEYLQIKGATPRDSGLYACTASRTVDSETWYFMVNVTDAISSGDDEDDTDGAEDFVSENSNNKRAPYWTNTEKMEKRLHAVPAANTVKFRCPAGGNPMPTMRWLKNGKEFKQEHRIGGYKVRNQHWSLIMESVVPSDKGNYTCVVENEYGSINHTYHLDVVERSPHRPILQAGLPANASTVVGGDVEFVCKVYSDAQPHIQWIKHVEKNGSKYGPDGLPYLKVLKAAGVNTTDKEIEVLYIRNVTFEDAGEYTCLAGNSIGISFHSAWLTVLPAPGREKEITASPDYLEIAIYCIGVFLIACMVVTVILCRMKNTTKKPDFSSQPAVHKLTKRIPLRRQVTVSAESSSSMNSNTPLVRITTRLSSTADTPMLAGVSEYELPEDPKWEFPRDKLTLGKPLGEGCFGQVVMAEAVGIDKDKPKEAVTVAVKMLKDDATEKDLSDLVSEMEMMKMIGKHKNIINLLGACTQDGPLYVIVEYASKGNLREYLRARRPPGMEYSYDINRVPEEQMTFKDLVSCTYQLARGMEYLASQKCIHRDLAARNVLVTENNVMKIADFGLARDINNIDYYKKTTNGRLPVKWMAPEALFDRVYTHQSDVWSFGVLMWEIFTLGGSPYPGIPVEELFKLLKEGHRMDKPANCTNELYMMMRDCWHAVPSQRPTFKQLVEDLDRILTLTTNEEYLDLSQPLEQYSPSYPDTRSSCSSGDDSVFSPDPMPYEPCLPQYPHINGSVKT

Row | IC50 [1] | SMILES | IC50 (KG-1) | further results
1 | 0.0235 µM | CNC(=O)c1cccc2cc(Oc3ccnc(NC(=O)c4cnn(CCO)c4)c3)ccc12 | 0.278 µM | –
2 | 0.0102 µM | CNC(=O)c1cccc2cc(Oc3ccnc(NC(=O)c4cnc(N5C[C@@H](C)N[C@@H](C)C5)nc4)c3)ccc12 | 0.0303 µM | –
3 | 0.0036 µM | CNC(=O)c1cccc2cc(Oc3ccnc(NC(=O)c4ccc(OCCN5CC(F)C5)cc4)c3)ccc12 | 0.0051 µM | –
4 | 0.0021 µM | CNC(=O)c1cccc2cc(Oc3ccnc(NC(=O)c4ccc(N5C[C@@H](C)N[C@@H](C)C5)cc4)c3)ccc12 | 0.0149 µM | –
5 | – | CNC(=O)c1cccc2cc(Oc3ccnc(NC(=O)c4ccc(N5CCN(C)CC5)cc4)c3)ccc12 [listing 1 of 2 here] | – | TGI (SNU-16 [2]): Dose-dependent effect
6 | 0.0061 µM | CNC(=O)c1cccc2cc(Oc3ccnc(NC(=O)c4ccc(OCCN5CC(F)(F)C5)cc4)c3)ccc12 | < 0.0041 µM | –
7 | 0.0019 µM | CNC(=O)c1cccc2cc(Oc3ccnc(NC(=O)c4ccc(N5CC(C)OC(C)C5)cc4)c3)ccc12 (centres undefined) | 0.154 µM | –
8 | 0.0128 µM | C=CC(=O)Nc1ccc(C(=O)Nc2cc(Oc3ccc4c(C(=O)NC)cccc4c3)ccn2)cc1 | 0.369 µM | –
9 | – | CNC(=O)c1cccc2cc(Oc3ccnc4cc(OCC5(N)CC5)c(OC)cc34)ccc12 [LUCITANIB] | – | IC50 [3]: 0.238 µM
10 | 0.0129 µM | CNC(=O)c1cccc2cc(Oc3ccnc(NC(=O)c4ccc(N5C[C@@H](C)N[C@@H](C)C5)cc4C)c3)ccc12 | > 1 µM | –
11 | 0.0222 µM | COc1cc(OC)c(F)c(COc2ccc(NC(=O)c3ccc(N4C[C@@H](C)N[C@@H](C)C4)cc3)nc2)c1F | 0.116 µM | –
12 | 0.0012 µM | CNC(=O)c1cccc2cc(Oc3ccnc(NC(=O)c4ccc(C5CCN(CCO)CC5)cc4)c3)ccc12 | < 0.0041 µM | –
13 | 0.0361 µM | CCNC(=O)Nc1ccc(Oc2ccnc(NC(=O)c3ccc(N4C[C@@H](C)N[C@@H](C)C4)cc3)c2)c(OC)c1 | 0.548 µM | –
14 | > 1 µM | COc1cc(CCOc2ccnc(NC(=O)c3ccc(N4C[C@@H](C)N[C@@H](C)C4)cc3)c2)cc(OC)c1 | – | –
15 | 0.0041 µM | CNC(=O)c1cccc2cc(Oc3ccnc(NC(=O)c4ccc(OCCN5CCCC5)cc4)c3)ccc12 | < 0.0041 µM | –
16 | – | COc1cc(CCc2cc(NC(=O)c3ccc(N4C[C@@H](C)N[C@@H](C)C4)cc3)n[nH]2)cc(OC)c1 [FEXAGRATINIB] | 0.0019 to 0.0087 µM | IC50 [4]: 0.0269 µM; IC50 (RT-112): 0.0838 µM; IC50 (NCI-H1581): 0.04 µM; IC50 (SNU-16 [5]): 0.0062 µM; IC50 (BaF3): 0.222 µM
17 | 0.0675 µM | CCNC(=O)Nc1cccc2cc(Oc3ccnc(NC(=O)c4ccc(N5C[C@@H](C)N[C@@H](C)C5)cc4)c3)ccc12 | 0.504 µM | –

Row | IC50 [1] | SMILES | IC50 (KG-1) | further results
18 | 0.132 µM | CCNC(=O)N1CCCc2cc(Oc3ccnc(NC(=O)c4ccc(N5C[C@@H](C)N[C@@H](C)C5)cc4)c3)ccc21 | 0.118 µM | –
19 | > 1 µM | CNC(=O)c1cccc2cc(Oc3ccnc(NC(=O)c4ccc(N5C[C@@H](C)N[C@@H](C)C5)cc4F)c3)ccc12 | – | –
20 | 0.0019 µM | CNC(=O)c1cccc2cc(Oc3ccnc(NC(=O)c4ccc(N5CCN(CCO)CC5)cc4)c3)ccc12 | 0.0058 µM | –
21 | 0.002 µM | CNC(=O)c1cccc2cc(Oc3ccnc(NC(=O)c4ccc(N5CCNC(C)C5)cc4)c3)ccc12 (centres undefined) | < 0.0041 µM | –
22 | – | CNC(=O)c1cccc2cc(Oc3ccnc(NC(=O)c4ccc(N5CCN(C)CC5)cc4)c3)ccc12 [listing 2 of 2 here] | < 0.0005 µM | Vd [6]: 16.7 L/kg; AUC(0-t) [7]: 21.4 ng·h/mL; IC50 [4]: 0.0017 µM; half-life [8]: 1.85 h; AUC(0-inf) [9]: 49 ng·h/mL; bioavailability [10]: 14.9%; half-life [11]: 0.897 h; IC50 (RT-112): 0.0526 µM; IC50 [12]: 0.0045 µM; IC50 (NCI-H1581): 0.0223 µM; IC50 [13]: 0.0029 µM; IC50 (SNU-16 [5]): < 0.0005 µM; AUC(0-inf) [14]: 22.7 ng·h/mL; IC50 [15]: 0.0106 µM; IC50 (BaF3): < 0.0015 µM; AUC(0-t) [16]: 47.9 ng·h/mL; clearance [17]: 346 mL/min/kg
23 | 0.0074 µM | CNC(=O)c1cccc2cc(Oc3ccnc(NC(=O)c4ccc(OCC5(N)CC5)cc4)c3)ccc12 | 0.0545 µM | –
24 | 0.0046 µM | COC(=O)c1cccc2cc(Oc3ccnc(NC(=O)c4ccc(N5C[C@@H](C)N[C@@H](C)C5)cc4)c3)ccc12 | 0.159 µM | –
25 | > 1 µM | CC(Oc1ccc(NC(=O)c2ccc(N3C[C@@H](C)N[C@@H](C)C3)cc2)nc1)c1c(Cl)cncc1Cl (some centres undefined) | – | –
26 | > 1 µM | COc1cc(OC)c(Cl)c(CCOc2ccnc(NC(=O)c3ccc(N4C[C@@H](C)N[C@@H](C)C4)cc3)c2)c1Cl | – | –
27 | 0.0062 µM | CNC(=O)c1cccc2cc(Oc3ccnc(NC(=O)c4ccc(NCC5(O)CCOCC5)cc4)c3)ccc12 | < 0.0041 µM | –
28 | 0.0016 µM | CNC(=O)c1cccc2cc(Oc3ccnc(NC(=O)c4ccc(C5CCNCC5)cc4)c3)ccc12 | 0.0722 µM | –
29 | 0.0028 µM | CNC(=O)c1cccc2cc(Oc3ccnc(NC(=O)c4coc(N5CCN(C)CC5)n4)c3)ccc12 | – | –
30 | – | CNC(=O)c1cccc2cc(Oc3ccnc(NC(=O)c4ccc(N5CCN(C)CC5)cc4)c3)ccc12.Cl.Cl | – | inhibition in vivo at 50 mg/kg (SNU-16 [18]): 81%; Activity (Mus musculus): Non-Toxic; inhibition in vivo at 10 mg/kg (SNU-16 [19]): 25%; solubility [20]: Soluble
31 | 0.0076 µM | CNC(=O)c1cccc2cc(Oc3ccnc(NC(=O)c4csc(N5CCN(C)CC5)n4)c3)ccc12 | – | –
32 | 0.0012 µM | CNC(=O)c1cccc2cc(Oc3ccnc(NC(=O)c4ccc(N5CCOCC5)cc4)c3)ccc12 | 0.0093 µM | –
33 | 0.285 µM | CNC(=O)c1cccc2cc(Oc3ccnc(NC(=O)c4ccc(N5C[C@@H](C)N[C@@H](C)C5)cc4OC)c3)ccc12 | – | –
